This is an account of results in patent publication US7223781B2 (Beiersdorf AG, priority 2001, dated 2007).

Like-named read-outs stand apart in the source and are kept apart here.

One assay concerns the target T1, COX-1 (Sus scrofa, UniProt A0A287ANF9).
T1 construct: A platelet suspension obtained from pig's blood is preincubated with the test substance; endogenous in cells; host or cells: platelets from pig's blood
Nature of the assay: In-vitro test for COX-1 inhibition: fluorimetric quantification of malonaldehyde (MDA) in A23187-activated pig platelet suspension. The format is cell-based. The following applies: pig platelets, read-out: MDA pIC50 (converted). An outline of the steps: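 Pig platelets (8×10^8 cells/ml) were preincubated with compound for 10 min at 37°C, then stimulated with A23187 ([…]) for 10 min. Malonaldehyde was condensed with thiobarbituric acid and read by fluorescence at 533/550 nm; IC50 taken from a calibration curve.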

The next assay addresses T2, COX-2 (Homo sapiens, UniProt P35354).
T2 construct: endogenous in cells; host or cells: LPS-stimulated human monocytes (Ficoll extraction)
T2 sequence (P35354 18-604): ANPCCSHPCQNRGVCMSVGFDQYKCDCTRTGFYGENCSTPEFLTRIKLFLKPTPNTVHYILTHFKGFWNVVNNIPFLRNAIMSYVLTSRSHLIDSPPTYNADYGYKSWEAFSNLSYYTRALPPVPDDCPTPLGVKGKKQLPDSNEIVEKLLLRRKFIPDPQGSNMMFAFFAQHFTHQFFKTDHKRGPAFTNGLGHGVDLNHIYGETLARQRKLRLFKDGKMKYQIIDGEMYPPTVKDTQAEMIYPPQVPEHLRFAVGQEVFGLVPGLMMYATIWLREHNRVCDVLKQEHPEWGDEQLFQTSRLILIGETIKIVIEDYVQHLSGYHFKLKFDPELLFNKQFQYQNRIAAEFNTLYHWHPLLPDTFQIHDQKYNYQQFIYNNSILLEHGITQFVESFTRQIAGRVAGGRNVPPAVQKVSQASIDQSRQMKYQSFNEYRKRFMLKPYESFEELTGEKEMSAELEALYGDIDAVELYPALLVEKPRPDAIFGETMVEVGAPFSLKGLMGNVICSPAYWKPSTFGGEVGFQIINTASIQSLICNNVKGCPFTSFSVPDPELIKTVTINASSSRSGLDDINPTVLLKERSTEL
In words: In-vitro test for COX-2 inhibition: PGE2 ELISA in LPS-stimulated human monocytes. The format is cell-based. The following applies: Table 18, LPS-stimulated human monocytes, PGE2. As to the method:
In-vitro Test Procedure for the Determination of COX-2 Inhibition
The procedure is carried out on LPS-stimulated human monocytes which have been obtained by Ficoll extraction. The measurement variable used is the PGE2 formed, which is determined by means of ELISA.
Background: An ELISA detects its analyte on a solid surface through an enzyme-linked reagent.

[1] abbreviates: read-out: COX-2 inhibition pIC50 (converted).

T1 sequence (A0A287ANF9 25-600): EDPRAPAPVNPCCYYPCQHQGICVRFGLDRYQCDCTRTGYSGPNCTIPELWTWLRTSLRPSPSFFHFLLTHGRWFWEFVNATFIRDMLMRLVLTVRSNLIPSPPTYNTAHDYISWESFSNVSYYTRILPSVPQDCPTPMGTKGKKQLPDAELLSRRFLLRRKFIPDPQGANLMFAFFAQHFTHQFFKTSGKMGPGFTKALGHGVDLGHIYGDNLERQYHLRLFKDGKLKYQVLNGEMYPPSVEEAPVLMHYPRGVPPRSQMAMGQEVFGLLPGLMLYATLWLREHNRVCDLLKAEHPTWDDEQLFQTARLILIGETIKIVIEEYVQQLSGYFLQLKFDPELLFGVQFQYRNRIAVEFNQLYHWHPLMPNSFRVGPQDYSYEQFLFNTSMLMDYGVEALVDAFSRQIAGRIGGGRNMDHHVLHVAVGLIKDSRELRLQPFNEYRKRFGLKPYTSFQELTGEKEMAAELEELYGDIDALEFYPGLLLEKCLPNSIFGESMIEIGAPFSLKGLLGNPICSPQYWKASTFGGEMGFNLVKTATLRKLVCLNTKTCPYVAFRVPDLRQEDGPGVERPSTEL

With `COc1ccc(-c2nc(SCCN(C)C(=O)c3ccccc3)n(C)c2-c2ccc(OC)cc2)cc1` [Compound T31], the IC50 at COX-1 (Table 16, dimethyl compounds) is 83.2 nM; at COX-2 (read-out: COX-2 inhibition IC50) it was 910 nM.

`CCN(CC)C(=O)Sc1nc(-c2ccc(Cl)cc2)c(-c2ccc(OC)cc2)[nH]1` [Compound T108, [4-(4-Chlorophenyl)-5-(4-methoxyphenyl)-1H-imidazol-2-yl]-N N-diethyl-carbamic acid thioester]: the IC50 at COX-1 (Table 1, carbamic acid thioesters) was 158 nM; on COX-2 (setting [1]) it was 1000 nM.

As to `COc1ccc(-c2nc(SCCNC(C)=O)[nH]c2-c2ccc(OC)cc2)cc1` [Compound T49, N^1-{2-[4,5-Bis(4-methoxyphenyl)-1H-imidazol-2-ylsulfanyl]ethyl}acetamide], the IC50 was 10 nM at COX-1 (Table 9, alkylamides) and 2690 nM on COX-2 (setting [1]).
